Laboratory results: PubChem BioAssay AID256 (DTP/NCI, 2004)
“And” between values parts separate entries of the source, which are not always exact repeats. Identical values can stand only once. Inconclusive results and toxic doses are left out.

Test system: CD2F1 mice, L1210 leukemia ip, survival T/C
Experiment: NCI In Vivo Anticancer Drug Screen. Data for tumor model L1210 Leukemia (intraperitoneal) in CD2F1 (CDF1) mice
Settings: higher = longer survival
How it was run: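 Compound-dosed mice with transplantable tumor versus matched vehicle controls; endpoint ratio T/C reported.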

[1] = endpoint: mean survival time, dose: 100.0 mg/kg/injection, schedule: Q04DX003 (ip), vehicle: saline with Tween-80
[2] = endpoint: mean survival time, dose: 100.0 mg/kg/injection, schedule: Q04DX003 (ip), vehicle: saline
[3] = endpoint: mean survival time, dose: 200.0 mg/kg/injection, schedule: Q04DX003 (ip), vehicle: saline
[4] = endpoint: mean survival time, dose: 400.0 mg/kg/injection, schedule: Q04DX003 (ip), vehicle: saline
[5] = endpoint: mean survival time, dose: 200.0 mg/kg/injection, schedule: Q04DX003 (ip), vehicle: saline with Tween-80
[6] = endpoint: mean survival time, dose: 400.0 mg/kg/injection, schedule: Q04DX003 (ip), vehicle: saline with Tween-80
[7] = endpoint: mean survival time, dose: 100.0 mg/kg/injection, schedule: Q04DX003 (ip), vehicle: Klucel (hydroxypropylcellulose) (HPC)
[8] = endpoint: mean survival time, dose: 200.0 mg/kg/injection, schedule: Q04DX003 (ip), vehicle: Klucel (hydroxypropylcellulose) (HPC)
[9] = endpoint: mean survival time, dose: 400.0 mg/kg/injection, schedule: Q04DX003 (ip), vehicle: Klucel (hydroxypropylcellulose) (HPC)

CC[C@]1(O)C[C@H]2CN(CCc3c([nH]c4ccccc34)[C@@](C(=O)OC)(c3cc4c(cc3OC)N(C=O)[C@H]3[C@@](O)(C(=O)OC)[C@H](OC(C)=O)[C@]5(CC)C=CCN6CC[C@]43[C@@H]65)C2)C1
T/C (endpoint: mean survival time, dose: 0.08 mg/kg/injection, schedule: Q01DX009 (ip), vehicle: water): 121 % of control
T/C (endpoint: mean survival time, dose: 0.13 mg/kg/injection, schedule: Q01DX009 (ip), vehicle: water): 122 % of control
T/C (endpoint: mean survival time, dose: 0.2 mg/kg/injection, schedule: Q04DX003 (ip), vehicle: saline): 115 % of control
T/C (endpoint: mean survival time, dose: 0.2 mg/kg/injection, schedule: Q04DX003 (ip), vehicle: water): 106 % of control
T/C (endpoint: mean survival time, dose: 0.23 mg/kg/injection, schedule: Q04DX003 (ip), vehicle: water): 121 % of control and 98 % of control
T/C (endpoint: mean survival time, dose: 0.36 mg/kg/injection, schedule: Q01DX009 (ip), vehicle: water): 104 % of control
T/C (endpoint: mean survival time, dose: 0.39 mg/kg/injection, schedule: Q04DX003 (ip), vehicle: water): 118 % of control and 108 % of control
T/C (endpoint: mean survival time, dose: 0.4 mg/kg/injection, schedule: Q04DX003 (ip), vehicle: water): 106 % of control and 112 % of control
T/C (endpoint: mean survival time, dose: 0.5 mg/kg/injection, schedule: Q01DX009 (ip), vehicle: saline): 102 % of control
T/C (endpoint: mean survival time, dose: 0.5 mg/kg/injection, schedule: Q04DX004 (ip), vehicle: saline): 117 % of control and 120 % of control and 112 % of control
T/C (endpoint: mean survival time, dose: 0.65 mg/kg/injection, schedule: Q04DX003 (ip), vehicle: water): 112 % of control
T/C (endpoint: mean survival time, dose: 0.8 mg/kg/injection, schedule: Q04DX003 (ip), vehicle: water): 103 % of control and 110 % of control
T/C (endpoint: mean survival time, dose: 1.0 mg/kg/injection, schedule: Q01DX009 (ip), vehicle: saline): 68 % of control and 73 % of control
T/C (endpoint: mean survival time, dose: 1.0 mg/kg/injection, schedule: Q04DX004 (ip), vehicle: saline): 119 % of control
T/C (endpoint: mean survival time, dose: 1.08 mg/kg/injection, schedule: Q04DX003 (ip), vehicle: water): 118 % of control
T/C (endpoint: mean survival time, dose: 1.5 mg/kg/injection, schedule: Q04DX003 (ip), vehicle: saline): 121 % of control
T/C (endpoint: mean survival time, dose: 1.5 mg/kg/injection, schedule: Q04DX004 (ip), vehicle: saline): 119 % of control
T/C (endpoint: mean survival time, dose: 1.6 mg/kg/injection, schedule: Q04DX003 (ip), vehicle: saline): 120 % of control
T/C (endpoint: mean survival time, dose: 1.6 mg/kg/injection, schedule: Q04DX003 (ip), vehicle: water): 117 % of control and 108 % of control
T/C (endpoint: mean survival time, dose: 78.0 micrograms/kg/injection, schedule: Q01DX009 (ip), vehicle: water): 102 % of control
T/C (endpoint: mean survival time, dose: 130.0 micrograms/kg/injection, schedule: Q01DX009 (ip), vehicle: water): 108 % of control
T/C (endpoint: mean survival time, dose: 216.0 micrograms/kg/injection, schedule: Q01DX009 (ip), vehicle: water): 114 % of control
T/C (endpoint: mean survival time, dose: 360.0 micrograms/kg/injection, schedule: Q01DX009 (ip), vehicle: water): 124 % of control
T/C (endpoint: median survival time, dose: 62.5 micrograms/kg/injection, schedule: Q01DX009 (ip), vehicle: water): 115 % of control
T/C (endpoint: median survival time, dose: 125.0 micrograms/kg/injection, schedule: Q01DX009 (ip), vehicle: water): 121 % of control
T/C (endpoint: median survival time, dose: 1000.0 micrograms/kg/injection, schedule: Q01DX009 (ip), vehicle: water): 95 % of control

CCN1CCCC(Nc2nc(Nc3cc(Cl)cc(Cl)c3)nc3ccc(Cl)cc23)C1 (stereo unspecified)
T/C (endpoint: mean survival time, dose: 25.0 mg/kg/injection, schedule: Q01DX009 (ip), vehicle: saline with Tween-80): 103 % of control
T/C [1]: 90 % of control

CCOc1ccc(C(C)c2cc3c(cc2OC)OCO3)cc1 (stereo unspecified)
T/C (endpoint: median survival time, dose: 25.0 mg/kg/injection, schedule: Q01DX009 (ip), vehicle: distilled water + Tween-80): 104 % of control
T/C (endpoint: median survival time, dose: 25.0 mg/kg/injection, schedule: Q01DX009 (ip), vehicle: saline with Tween-80): 117 % of control
T/C (endpoint: median survival time, dose: 50.0 mg/kg/injection, schedule: Q01DX009 (ip), vehicle: distilled water + Tween-80): 104 % of control
T/C (endpoint: median survival time, dose: 50.0 mg/kg/injection, schedule: Q01DX009 (ip), vehicle: saline with Tween-80): 109 % of control
T/C (endpoint: median survival time, dose: 100.0 mg/kg/injection, schedule: Q01DX009 (ip), vehicle: distilled water + Tween-80): 109 % of control
T/C (endpoint: median survival time, dose: 100.0 mg/kg/injection, schedule: Q01DX009 (ip), vehicle: saline with Tween-80): 110 % of control
T/C (endpoint: median survival time, dose: 200.0 mg/kg/injection, schedule: Q01DX009 (ip), vehicle: distilled water + Tween-80): 124 % of control
T/C (endpoint: median survival time, dose: 200.0 mg/kg/injection, schedule: Q01DX009 (ip), vehicle: saline with Tween-80): 150 % of control

O=C(O)/C=C\C(=O)Nc1ccccc1NC(=O)/C=C/C(=O)O
T/C [2]: 110 % of control
T/C [3]: 99 % of control
T/C [4]: 101 % of control

CC(=O)OCC1OC(n2nc(CBr)cc2C(N)=O)C(OC(C)=O)C(OC(C)=O)C1OC(C)=O (stereo unspecified)
T/C (endpoint: mean survival time, dose: 12.5 mg/kg/injection, schedule: Q01DX005 (ip), vehicle: distilled water + Tween-80): 104 % of control
T/C (endpoint: mean survival time, dose: 25.0 mg/kg/injection, schedule: Q01DX005 (ip), vehicle: distilled water + Tween-80): 96 % of control
T/C (endpoint: mean survival time, dose: 50.0 mg/kg/injection, schedule: Q01DX005 (ip), vehicle: distilled water + Tween-80): 98 % of control
T/C (endpoint: mean survival time, dose: 100.0 mg/kg/injection, schedule: Q01DX005 (ip), vehicle: distilled water + Tween-80): 92 % of control
T/C (endpoint: mean survival time, dose: 200.0 mg/kg/injection, schedule: Q01DX005 (ip), vehicle: distilled water + Tween-80): 93 % of control

O=C1CCC2(CC1C1C=CCC1)OCCO2 (stereo unspecified)
T/C (endpoint: mean survival time, dose: 100.0 mg/kg/injection, schedule: Q01DX009 (ip), vehicle: saline with Tween-80): 91 % of control
T/C [1]: 100 % of control
T/C (endpoint: mean survival time, dose: 200.0 mg/kg/injection, schedule: Q01DX009 (ip), vehicle: saline with Tween-80): 94 % of control
T/C [5]: 102 % of control
T/C (endpoint: mean survival time, dose: 400.0 mg/kg/injection, schedule: Q01DX009 (ip), vehicle: saline with Tween-80): 100 % of control
T/C [6]: 98 % of control

C1CCC2(CC1)SSC1(CCCCC1)S2
T/C (endpoint: mean survival time, dose: 100.0 mg/kg/injection, schedule: Q01DX009 (ip), vehicle: other): 108 % of control
T/C (endpoint: mean survival time, dose: 200.0 mg/kg/injection, schedule: Q01DX009 (ip), vehicle: other): 100 % of control
T/C (endpoint: mean survival time, dose: 400.0 mg/kg/injection, schedule: Q01DX009 (ip), vehicle: other): 110 % of control

Nc1nc(-c2cc(Br)ccc2N=NN2CCCC2)nc2ccc(Br)cc12
T/C (endpoint: mean survival time, dose: 100.0 mg/kg/injection, schedule: Q04DX002 (ip), vehicle: Klucel (hydroxypropylcellulose) (HPC)): 95 % of control
T/C (endpoint: mean survival time, dose: 200.0 mg/kg/injection, schedule: Q04DX002 (ip), vehicle: Klucel (hydroxypropylcellulose) (HPC)): 113 % of control
T/C (endpoint: mean survival time, dose: 400.0 mg/kg/injection, schedule: Q04DX002 (ip), vehicle: Klucel (hydroxypropylcellulose) (HPC)): 98 % of control

O=C(Cc1ccc([N+](=O)[O-])cc1)c1ccc(O)cc1O
T/C [7]: 96 % of control
T/C [8]: 98 % of control
T/C [9]: 103 % of control

COC(=O)c1cccc2c(Br)cc3ccccc3c12
T/C (endpoint: mean survival time, dose: 100.0 mg/kg/injection, schedule: Q01DX009 (ip), vehicle: Klucel (hydroxypropylcellulose) (HPC)): 98 % of control
T/C [7]: 102 % of control
T/C (endpoint: mean survival time, dose: 200.0 mg/kg/injection, schedule: Q01DX009 (ip), vehicle: Klucel (hydroxypropylcellulose) (HPC)): 103 % of control
T/C [8]: 98 % of control
T/C (endpoint: mean survival time, dose: 400.0 mg/kg/injection, schedule: Q01DX009 (ip), vehicle: Klucel (hydroxypropylcellulose) (HPC)): 110 % of control
T/C [9]: 108 % of control

CC(=O)SCCNCC(C)(C)S
T/C [2]: 98 % of control
T/C [3]: 98 % of control
T/C [4]: 95 % of control

O=[N+]([O-])c1cccc(N=C(c2ccccc2)N(O)c2ccccc2)c1
T/C (endpoint: mean survival time, dose: 100.0 mg/kg/injection, schedule: Q01DX001 (ip), vehicle: saline): 100 % of control
T/C [2]: 102 % of control
T/C (endpoint: mean survival time, dose: 200.0 mg/kg/injection, schedule: Q01DX001 (ip), vehicle: saline): 100 % of control
T/C [3]: 97 % of control
T/C (endpoint: mean survival time, dose: 400.0 mg/kg/injection, schedule: Q01DX001 (ip), vehicle: saline): 100 % of control
T/C [4]: 103 % of control

CC1=C(/C=C/C(C)(O)CC2=NC(C)(C)CO2)C(C)(C)CCC1 (stereo unspecified)
T/C (endpoint: mean survival time, dose: 25.0 mg/kg/injection, schedule: Q04DX002 (ip), vehicle: saline with Tween-80): 101 % of control
T/C (endpoint: mean survival time, dose: 50.0 mg/kg/injection, schedule: Q04DX002 (ip), vehicle: saline with Tween-80): 93 % of control
T/C (endpoint: mean survival time, dose: 100.0 mg/kg/injection, schedule: Q04DX002 (ip), vehicle: saline with Tween-80): 93 % of control
T/C [1]: 91 % of control
T/C [6]: 86 % of control

CN1C(=O)c2ccccc2C1(c1ccccc1)c1ccccc1
T/C [1]: 92 % of control
T/C [5]: 103 % of control
T/C [6]: 102 % of control

O=C(O)CSc1nc(-c2ccccc2)c(-c2ccccc2)n1-c1ccccn1
T/C (endpoint: mean survival time, dose: 12.5 mg/kg/injection, schedule: Q01DX009 (ip), vehicle: water): 96 % of control and 97 % of control
T/C (endpoint: mean survival time, dose: 25.0 mg/kg/injection, schedule: Q01DX009 (ip), vehicle: water): 91 % of control and 100 % of control
T/C (endpoint: mean survival time, dose: 50.0 mg/kg/injection, schedule: Q01DX009 (ip), vehicle: water): 96 % of control and 102 % of control
T/C (endpoint: mean survival time, dose: 100.0 mg/kg/injection, schedule: Q01DX009 (ip), vehicle: water): 100 % of control and 102 % of control
